Reference: US8148531B2 (Chroma Therapeutics Ltd., priority 2005, dated 2012)

Columns and labels:
[1] = molecular target: Aurora-B (Homo sapiens, UniProt Q96GD4); test: Aurora-B enzyme assay (identical protocol as Aurora-A); format: biochemical; settings: IC50 range class; read-out: Inhibitor Activity vs Aurora-B
Procedure: (§1) The ability of compounds to inhibit Aurora-A activity was measured using a simple microplate assay for Aurora-A activity, also suitable for high-throughput screening. In brief, γ-^33P-ATP and Aurora-A were incubated in a myelin basic protein (MBP)-coated Flashplate® to generate a scintillation signal. The plates were formatted to contain the inhibitor, controls, positive control (staurosporin) and blanks. After incubation at 37° C. for 1 hour and a subsequent wash procedure, the plates were read on a TopCount-NXT™.
(§2) IC50 values were determined by non-linear regression analysis, after fitting the data point results to the equation for sigmoidal dose response with variable slope (% activity against log concentration of compound), using Graphpad Prism software.
The Aurora-B enzyme assay follows the identical protocol as Aurora-A.

[2] = molecular target: T1, Aurora-A (Homo sapiens, UniProt O14965); test: Aurora-A enzyme assay (MBP-coated Flashplate, γ-33P-ATP); format: biochemical; settings: IC50 range class; read-out: Inhibitor Activity vs Aurora-A
T1 sequence (O14965 1-403): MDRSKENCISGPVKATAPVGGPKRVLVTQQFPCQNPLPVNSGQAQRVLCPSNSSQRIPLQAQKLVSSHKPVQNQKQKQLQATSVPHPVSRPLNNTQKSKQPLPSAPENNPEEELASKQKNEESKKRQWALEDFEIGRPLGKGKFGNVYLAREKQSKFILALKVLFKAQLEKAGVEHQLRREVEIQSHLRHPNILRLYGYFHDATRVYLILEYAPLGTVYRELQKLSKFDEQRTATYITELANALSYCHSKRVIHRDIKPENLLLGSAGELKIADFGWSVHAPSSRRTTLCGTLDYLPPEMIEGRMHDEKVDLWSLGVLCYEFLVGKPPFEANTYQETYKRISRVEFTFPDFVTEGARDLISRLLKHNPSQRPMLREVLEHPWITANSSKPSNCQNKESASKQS
Procedure: as §1
The 384-well basic Flashplate® and the γ-^33P-ATP were obtained from PerkinElmer Life Sciences, Boston, Mass.
as §2
Full experimental procedure for this assay can be found within the following reference: Sun, C Journal of Biomolecular Screening 9(5), 2004, 391.

[3] = test system: HUT cell line; test: Cell inhibition assay (SRB cell viability), HUT; format: cell-based; settings: IC50 range class, 72 h, read-out: Inhibitor Activity vs HUT cell line
Procedure, shortened: (§3)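 Log-phase cells seeded at 1000 cells/well, grown 24 h, then exposed to compounds (20 uM final) for 72 h. Viability read by sulphorhodamine B staining as % inhibition versus DMSO; IC50 from eight-point sigmoidal variable-slope fit.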

[4] = test system: U937 cell line; test: Cell inhibition assay (SRB cell viability), U937; format: cell-based; settings: Homo sapiens, U-937, IC50 range class, 72 h, read-out: Inhibitor Activity vs U937 cell line
Procedure, shortened: as §3

[5] = test system: HCT 116 cell line; test: Cell inhibition assay (SRB cell viability), HCT 116; format: cell-based; settings: Homo sapiens, IC50 range class, 72 h, read-out: Inhibitor Activity vs HCT 116 cell line
Procedure, shortened: as §3

Chain of Aurora-B (Q96GD4 whole entry): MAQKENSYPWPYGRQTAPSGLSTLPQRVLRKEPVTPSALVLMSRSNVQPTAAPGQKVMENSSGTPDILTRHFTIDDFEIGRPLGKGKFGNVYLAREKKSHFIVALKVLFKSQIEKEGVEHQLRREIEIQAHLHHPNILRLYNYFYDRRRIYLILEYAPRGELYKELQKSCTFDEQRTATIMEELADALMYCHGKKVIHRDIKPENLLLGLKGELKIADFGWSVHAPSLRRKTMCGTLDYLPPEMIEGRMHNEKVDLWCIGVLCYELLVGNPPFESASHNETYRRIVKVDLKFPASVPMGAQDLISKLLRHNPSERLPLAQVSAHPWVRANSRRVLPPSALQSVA

Row | IC50 [1] | IC50 [2] | IC50 [4] | IC50 [5] | Compound | IC50 [3]
1 | < 2000 nM | 2000 to 5000 nM |  |  | COc1cc2c(Oc3ccc(NC(=O)c4ccccc4F)cc3)ccnc2cc1OCC[C@H](N)C(=O)O [Example 62, (S)-2-Amino-4-{4-[4-(2-fluoro-benzoylamino)-phenoxy]-6-methoxy-quinolin-7-yloxy}-butyric acid] | 
2 | < 2000 nM | > 5000 nM |  |  | COc1cc2c(Oc3ccc(CC(=O)Nc4ccc(F)cc4)cc3)ccnc2cc1OCC[C@H](N)C(=O)O [Example 87, (S)-2-Amino-4-(4-{4-[(4-fluoro-phenylcarbamoyl)-methyl]-phenoxy}-6-methoxy-quinolin-7-yloxy)-butyric acid] | 
3 | < 2000 nM | 2000 to 5000 nM |  |  | COc1cc2c(Oc3ccc(NC(=O)c4cc(C(F)(F)F)ccc4F)cc3)ccnc2cc1OCC[C@H](N)C(=O)O [Example 69, (S)-2-Amino-4-{4-[4-(2-fluoro-5-trifluoromethyl-benzoylamino)-phenoxy]-6-methoxy-quinolin-7-yloxy}-butyric acid] | 
4 | > 5000 nM | > 5000 nM |  |  | COc1cc2c(Oc3ccc(NC(=O)C4CC4)cc3)ccnc2cc1OCC[C@H](N)C(=O)O [Example 60, (S)-2-Amino-4-{4-[4-(cyclopropanecarbonyl-amino)-phenoxy]-6-methoxy-quinolin-7-yloxy}-butyric acid] | 
5 | < 2000 nM | < 2000 nM |  |  | COc1cc2c(Oc3ccc(NC(=O)Nc4ccccc4)cc3)ccnc2cc1OCCC[C@H](N)C(=O)O [Example 112, (S)-2-Amino-5-{6-methoxy-4-[4-(3-phenyl-ureido)-phenoxy]-quinolin-7-yloxy}-pentanoic acid] | 
6 | < 2000 nM | 2000 to 5000 nM |  |  | COc1cc2c(Oc3ccc(CC(=O)Nc4cccc(F)c4)cc3)ccnc2cc1OCC[C@H](N)C(=O)O [Example 85, (S)-2-Amino-4-(4-{4-[(3-fluoro-phenylcarbamoyl)-methyl]-phenoxy}-6-methoxy-quinolin-7-yloxy)-butyric acid] | 
7 | < 2000 nM | < 2000 nM |  |  | COc1cc2c(Oc3ccc(NC(=O)Nc4ccccc4)cc3)ccnc2cc1OCC[C@@H](N)C(=O)O [Example 102, (R)-2-Amino-4-{6-methoxy-4-[4-(3-phenyl-ureido)-phenoxy]-quinolin-7-yloxy}-butyric acid] | 
8 | 2000 to 5000 nM | 2000 to 5000 nM |  |  | COc1cc2c(Oc3ccc(NCc4ccccc4)cc3)ccnc2cc1OCC[C@H](N)C(=O)O [Example 139, (S)-2-Amino-4-[4-(4-benzylamino-phenoxy)-6-methoxy-quinolin-7-yloxy]-butyric acid] | 
9 | 2000 to 5000 nM | 2000 to 5000 nM |  |  | COc1cc2c(Oc3ccc(CC(=O)Nc4ccccc4)cc3)ccnc2cc1OCC[C@H](N)C(=O)O [Example 81, (S)-2-Amino-4-[6-methoxy-4-(4-phenylcarbamoylmethyl-phenoxy)-quinolin-7-yloxy]-butyric acid] | 
10 | < 2000 nM | < 2000 nM |  |  | COc1cc2c(Oc3ccc(NC(=O)c4ccccc4)cc3)ccnc2cc1OCCC[C@@H](N)C(=O)O [Example 116, (R)-2-Amino-5-[4-(4-benzoylamino-phenoxy)-6-methoxy-quinolin-7-yloxy]-pentanoic acid] | 
11 | < 2000 nM | 2000 to 5000 nM |  |  | COc1cc2c(Oc3ccc(NC(=O)c4ccc(F)cc4)cc3)ccnc2cc1OCC[C@H](N)C(=O)O [Example 64, (S)-2-Amino-4-{4-[4-(4-fluoro-benzoylamino)-phenoxy]-6-methoxy-quinolin-7-yloxy}-butyric acid] | 
12 | < 2000 nM | < 2000 nM |  |  | COc1cc2c(Oc3ccc(NC(=O)c4ccccc4)cc3)ccnc2cc1OCC[C@H](N)C(=O)O [Example 4, (S)-2-Amino-4-[4-(4-benzoylamino-phenoxy)-6-methoxy-quinolin-7-yloxy]-butyric acid] | 

Further lines, the compound ahead of its results:

Row | Compound | IC50 [1] | IC50 [2] | IC50 [4] | IC50 [5] | IC50 [3]
13 | COc1cc2c(Sc3ccc(NC(=O)c4ccccc4)cc3)ccnc2cc1OCC[C@H](N)C(=O)OC1CCCC1 [Example 18, (S)-2-Amino-4-[4-(4-benzoylamino-phenylsulfanyl)-6-methoxy-quinolin-7-yloxy]-butyric acid cyclopentyl ester] | > 5000 nM | < 2000 nM | < 1000 nM | < 1000 nM | < 1000 nM
14 | COc1cc2c(Nc3ccc(NC(=O)c4ccccc4)cc3)ccnc2cc1OCC[C@H](N)C(=O)OC1CCCC1 [Example 15, (S)-2-Amino-4-[4-(4-benzoylamino-phenylamino)-6-methoxy-quinolin-7-yloxy]-butyric acid cyclopentyl ester] | > 5000 nM | 2000 to 5000 nM | 1000 to 5000 nM | 1000 to 5000 nM | 1000 to 5000 nM
15 | COc1cc2c(Oc3ccc(NC(=O)c4ccccc4)cc3)ccnc2cc1OCC[C@H](N)C(=O)OC(C)(C)C [Example 50, (S)-2-Amino-4-[4-(4-benzoylamino-phenoxy)-6-methoxy-quinolin-7-yloxy]-butyric acid tert-butyl ester] | 2000 to 5000 nM | 2000 to 5000 nM | < 1000 nM | < 1000 nM | < 1000 nM
16 | COc1cc2c(Oc3ccc(NC(=O)c4cccc(F)c4)cc3)ccnc2cc1OCC[C@H](N)C(=O)OC1CCCC1 [Example 55, (S)-2-Amino-4-{4-[4-(3-fluoro-benzoylamino)-phenoxy]-6-methoxy-quinolin-7-yloxy}-butyric acid cyclopentyl ester] | 2000 to 5000 nM | 2000 to 5000 nM | < 1000 nM | < 1000 nM | < 1000 nM
17 | COc1cc2c(Oc3ccc(CC(=O)Nc4ccc(F)cc4F)cc3)ccnc2cc1OCC[C@H](N)C(=O)O [Example 89, (S)-2-Amino-4-(4-{4-[(2,4-difluoro-phenylcarbamoyl)-methyl]-phenoxy}-6-methoxy-quinolin-7-yloxy)-butyric acid] | < 2000 nM | > 5000 nM |  |  | 
18 | COc1cc2c(Oc3ccc(NC(=O)c4ccccc4)cc3)ccnc2cc1OCC[C@H](NC(=O)OC(C)(C)C)C(=O)O [Example 3] | < 2000 nM | < 2000 nM |  |  | 
19 | COc1cc2c(Oc3ccc(NC(=O)Nc4ccc(C(F)(F)F)cc4)cc3F)ccnc2cc1OCCC[C@@H](N)C(=O)O [Example 124, (R)-2-Amino-5-(4-{2-fluoro-4-[3-(4-trifluoromethyl-phenyl)-ureido]-phenoxy}-6-methoxy-quinolin-7-yloxy)-pentanoic acid] | < 2000 nM | < 2000 nM |  |  | 
20 | COc1cc2c(Oc3ccc(NC(=O)c4ccccc4)cc3)ncnc2cc1OCC[C@H](N)C(=O)O [Example 30, (S)-2-Amino-4-[4-(4-benzoylamino-phenoxy)-6-methoxy-quinazolin-7-yloxy]-butyric acid] | 2000 to 5000 nM | 2000 to 5000 nM |  |  | 
21 | COc1cc2c(Oc3ccc(NC(=O)c4ccccc4)cc3F)ccnc2cc1OCC[C@H](N)C(=O)O [Example 129, (S)-2-Amino-4-[4-(4-benzoylamino-2-fluoro-phenoxy)-6-methoxy-quinolin-7-yloxy]-butyric acid] | < 2000 nM | < 2000 nM |  |  | 
22 | COc1cc2c(Oc3ccc(NC(=O)c4ccccc4)cc3)ccnc2cc1OCC[C@H](NC(C)=O)C(=O)O [Example 43, (S)-2-Acetylamino-4-[4-(4-benzoylamino-phenoxy)-6-methoxy-quinolin-7-yloxy]-butyric acid] | < 2000 nM | < 2000 nM |  |  | 
23 | COc1cc2c(Sc3ccc(NC(=O)c4ccccc4)cc3)ccnc2cc1OCC[C@H](N)C(=O)O [Example 19, (S)-2-Amino-4-[4-(4-benzoylamino-phenylsulfanyl)-6-methoxy-quinolin-7-yloxy]-butyric acid] | < 2000 nM | < 2000 nM |  |  | 
24 | COc1cc2c(Oc3ccc(NC(=O)Nc4ccc(C(F)(F)F)cc4)cc3)ccnc2cc1OCCC[C@H](N)C(=O)O [Example 114, (S)-2-Amino-5-(6-methoxy-4-{4-[3-(4-trifluoromethyl-phenyl)-ureido]-phenoxy}-quinolin-7-yloxy)-pentanoic acid] | < 2000 nM | < 2000 nM |  |  | 
25 | COc1cc2c(Sc3ccc(NC(=O)Nc4ccc(C(F)(F)F)cc4)cc3)ccnc2cc1OCCC[C@@H](N)C(=O)O [Example 122, (R)-2-Amino-5-(6-methoxy-4-{4-[3-(4-trifluoromethyl-phenyl)-ureido]-phenylsulfanyl}-quinolin-7-yloxy)-pentanoic acid] | < 2000 nM | < 2000 nM |  |  | 
